In PubChem BioAssay (NCI):
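Method: 48-hour compound exposure of cells in 96-well plates, five concentrations, linear interpolation of endpoints. GI50 marks 50% less growth. Definition used: TGI = concentration required for complete inhibition of growth.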

Columns and labels:
Experiment in all cases: NCI-60 cell line screen, 48 h
OVCAR-4 ovarian = system: OVCAR-4 ovarian
T-47D breast = system: T-47D breast
UO-31 renal = system: UO-31 renal
HCT-15 colon = system: HCT-15 colon
CAKI-1 renal = system: CAKI-1 renal
SNB-75 CNS = system: SNB-75 CNS
SK-MEL-28 melanoma = system: SK-MEL-28 melanoma
MOLT-4 leukemia = system: MOLT-4 leukemia
NCI-H226 lung = system: NCI-H226 lung
NCI-H522 lung = system: NCI-H522 lung
UACC-257 melanoma = system: UACC-257 melanoma
A549 NSCLC = system: A549 NSCLC
MALME-3M melanoma = system: MALME-3M melanoma
MCF7 breast = system: MCF7 breast
HS 578T breast = system: HS 578T breast
SNB-19 CNS = system: SNB-19 CNS
MDA-MB-231 breast = system: MDA-MB-231 breast
EKVX NSCLC = system: EKVX NSCLC
KM12 colon = system: KM12 colon
SF-539 CNS = system: SF-539 CNS
A498 renal = system: A498 renal
OVCAR-8 ovarian = system: OVCAR-8 ovarian
MDA-MB-435 = system: MDA-MB-435
SF-295 CNS = system: SF-295 CNS
PC-3 prostate = system: PC-3 prostate
COLO 205 colon = system: COLO 205 colon
SF-268 CNS = system: SF-268 CNS

C=C1C(=O)O[C@H]2[C@H]1CC/C(COC(=O)/C=C/C(=O)NCc1ccc(Cn3c(=O)sn(-c4ccccc4)c3=O)cc1)=C\CC[C@@]1(C)O[C@@H]21
TGI (OVCAR-4 ovarian): 8.09 µM
GI50 (T-47D breast): 2.22 µM
TGI (T-47D breast): 7.21 µM
GI50 (UO-31 renal): 2.19 µM
TGI (UO-31 renal): 5.09 µM
GI50 (HCT-15 colon): 3.22 µM
TGI (HCT-15 colon): 13.6 µM
GI50 (CAKI-1 renal): 11.7 µM
TGI (CAKI-1 renal): 24.4 µM
GI50 (SNB-75 CNS): 3.41 µM
TGI (SNB-75 CNS): 15.2 µM
GI50 (SK-MEL-28 melanoma): 1.74 µM
TGI (SK-MEL-28 melanoma): 3.28 µM
GI50 (MOLT-4 leukemia): 1.14 µM
TGI (MOLT-4 leukemia): 5.2 µM
GI50 (NCI-H226 lung): 14.6 µM
TGI (NCI-H226 lung): 32.8 µM
GI50 (NCI-H522 lung): 0.406 µM
TGI (NCI-H522 lung): 1.77 µM
GI50 (UACC-257 melanoma): 1.74 µM
TGI (UACC-257 melanoma): 4.07 µM
GI50 (A549 NSCLC): 17.2 µM
TGI (A549 NSCLC): 37 µM
GI50 (MALME-3M melanoma): 0.933 µM
TGI (MALME-3M melanoma): 2.41 µM
GI50 (MCF7 breast): 1.75 µM
TGI (MCF7 breast): 7.72 µM
GI50 (HS 578T breast): 3.95 µM
TGI (HS 578T breast): 35.4 µM
GI50 (SNB-19 CNS): 4.8 µM
TGI (SNB-19 CNS): 19.4 µM
GI50 (MDA-MB-231 breast): 2.02 µM
TGI (MDA-MB-231 breast): 3.98 µM
GI50 (EKVX NSCLC): 4.82 µM
TGI (EKVX NSCLC): 17.6 µM
GI50 (KM12 colon): 2.96 µM
TGI (KM12 colon): 11.6 µM
GI50 (SF-539 CNS): 1.84 µM
TGI (SF-539 CNS): 3.45 µM
GI50 (A498 renal): 3.45 µM
TGI (A498 renal): 9.55 µM
GI50 (OVCAR-8 ovarian): 2.32 µM
TGI (OVCAR-8 ovarian): 5.39 µM
GI50 (MDA-MB-435): 1.73 µM
TGI (MDA-MB-435): 3.44 µM
GI50 (SF-295 CNS): 18.3 µM
TGI (SF-295 CNS): 32.7 µM
GI50 (PC-3 prostate): 2.84 µM
TGI (PC-3 prostate): 9.54 µM
GI50 (COLO 205 colon): 1.74 µM
TGI (COLO 205 colon): 3.47 µM
GI50 (SF-268 CNS): 2.67 µM
TGI (SF-268 CNS): 10.9 µM
